Among the test systems are CCRF-CEM leukemia; SW-620 colon; SN12C renal; TK-10 renal; HCT-116 colon; HOP-62 NSCLC; OVCAR-3 ovarian; RPMI-8226 leukemia; 786-0 renal; HT29 colon; MALME-3M melanoma; NCI-H522 lung.
Common to all, as to assay: growth of human tumour cells (NCI), 48 h

Each structure is given as a SMILES string. Where “and” joins values, the source holds several entries; their conditions need not be identical. Equal entries are not always repeated.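 Dose response: 5 concentrations. Exposure: 48 h. Format: 96-well plates. Endpoint: linear interpolation; highest concentration if not reached. Here, GI50 denotes the concentration required for 50% inhibition of growth. Definition used: TGI = concentration required for complete inhibition of growth.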

Regarding `CC(C)(C)[Si](C)(C)OCC1OC(n2ccc(=O)[nH]c2=O)C(O[Si](C)(C)C(C)(C)C)/C1=N/O` (configuration not stated), the TGI in the test on CCRF-CEM leukemia is 27.3 µM; with SW-620 colon, over 37.8 µM; with SN12C renal, 16.3 µM; in the test on TK-10 renal it was 20.9 µM; in the test on HCT-116 colon, 7.11 µM; in the test with HOP-62 NSCLC it was 17 µM. Also, the TGI was over 100 µM in the test with OVCAR-3 ovarian, 7.75 µM with RPMI-8226 leukemia, 8.23 µM with 786-0 renal and 9.82 µM with HT29 colon.

`CC1(C)COC(c2cccc(C3=NC(C)(C)CO3)c2)=N1`: the TGI with SW-620 colon, in the test with TK-10 renal, in the test with HCT-116 colon, in the test on HOP-62 NSCLC, in the test on MALME-3M melanoma and with RPMI-8226 leukemia was over 100 µM throughout. The TGI in the test on 786-0 renal and with HT29 colon was over 100 µM in each case.

Consider `CCC1OC2C(CC=C(C)C)=C3OC(C)(O)C(C)(CC)C(O)C3=C3OC(=O)C=C1C32` (configuration not stated), for which the TGI in the test with CCRF-CEM leukemia, with SW-620 colon, in the test with TK-10 renal, in the test with HCT-116 colon, in the test with RPMI-8226 leukemia and in the test with 786-0 renal was over 100 µM in each case.

As for `CCCCc1ccc(N2C(=O)c3cc(C)cnc3S2(=O)=O)cc1`, the TGI in the test with NCI-H522 lung, in the test on SW-620 colon, with SN12C renal, in the test on HCT-116 colon, with HOP-62 NSCLC and in the test on OVCAR-3 ovarian was over 100 µM throughout. In addition, the TGI in the test with MALME-3M melanoma, in the test on RPMI-8226 leukemia, in the test on 786-0 renal and in the test with HT29 colon was over 100 µM in each case.

For the molecule `NC12c3c4cccc3Oc3cccc(c31)Oc1cccc(c12)O4`, the TGI with CCRF-CEM leukemia, with NCI-H522 lung, in the test with SW-620 colon, with SN12C renal, in the test on HCT-116 colon and in the test on HOP-62 NSCLC was over 50 µM each time. Besides, the TGI in the test with OVCAR-3 ovarian, in the test on RPMI-8226 leukemia, in the test on 786-0 renal and in the test on HT29 colon was over 50 µM each time.

For the molecule `Cc1cccc(Nc2cn(CCOc3ccccc3)c(=O)[nH]c2=O)c1`, the TGI is over 100 µM in the test with CCRF-CEM leukemia; over 100 µM with SW-620 colon; 81.7 µM with SN12C renal; over 100 µM in the test on HCT-116 colon; over 100 µM in the test on HOP-62 NSCLC; 52.8 µM in the test on OVCAR-3 ovarian. Also, the TGI with RPMI-8226 leukemia and with 786-0 renal was over 100 µM in each case.

`N=C(/C=C/c1ccc(-c2cn3cc(/C=C/C(=N)N4CCOCC4)ccc3n2)cc1)N1CCOCC1`: the TGI in the test with NCI-H522 lung, in the test with SW-620 colon, in the test with SN12C renal, with TK-10 renal, with HCT-116 colon and in the test on HOP-62 NSCLC was over 100 µM throughout. For the same molecule, the TGI with OVCAR-3 ovarian, with MALME-3M melanoma, in the test with RPMI-8226 leukemia and in the test on 786-0 renal was over 100 µM throughout.

As for `c1ccc(/C(=N/Nc2cnccn2)c2ncccn2)cc1`, the TGI is over 100 µM in the test on CCRF-CEM leukemia; 44.7 µM in the test on NCI-H522 lung; over 100 µM in the test with SW-620 colon; over 100 µM with SN12C renal; over 100 µM in the test with HCT-116 colon; over 100 µM in the test with HOP-62 NSCLC. Besides, the TGI with OVCAR-3 ovarian, in the test on RPMI-8226 leukemia, in the test with 786-0 renal and with HT29 colon was over 100 µM in each case.

As to `COc1ccc2cc(C(=O)NCCc3ccccc3)ccc2c1OC`, the TGI was over 100 µM with SW-620 colon; over 100 µM in the test with SN12C renal; over 100 µM with HCT-116 colon; 75.3 µM in the test on HOP-62 NSCLC; over 100 µM with OVCAR-3 ovarian; over 100 µM in the test on MALME-3M melanoma. Further, the TGI in the test with RPMI-8226 leukemia, with 786-0 renal and in the test on HT29 colon was over 100 µM each time.

For the molecule `COC(=O)c1nc2c(C)c(O)c(O)c([C@H](C)CCC=C(C)C)c2o1`, the TGI was 29.6 µM in the test with CCRF-CEM leukemia; over 100 µM in the test with SW-620 colon; over 100 µM with TK-10 renal; 41.5 µM in the test with HCT-116 colon; 67.7 µM in the test on HOP-62 NSCLC; over 100 µM with OVCAR-3 ovarian. Further, the TGI with MALME-3M melanoma is over 100 µM; with RPMI-8226 leukemia, over 100 µM; with 786-0 renal it was 39.5 µM; with HT29 colon it was 37 µM.

Consider `COC(=O)CP1(=O)OC2C(C3CCC2(C)C3(C)C)N1c1cc(C(F)(F)F)cc(C(F)(F)F)c1` (configuration not stated), for which the TGI was found to be 88.3 µM in the test with SW-620 colon; 75.2 µM in the test with TK-10 renal; 40.7 µM with HCT-116 colon; 85.7 µM in the test on HOP-62 NSCLC; 34.4 µM in the test with OVCAR-3 ovarian; 58.1 µM with MALME-3M melanoma. Besides, the TGI with RPMI-8226 leukemia is 42.5 µM; with 786-0 renal it was 41.7 µM; in the test with HT29 colon, over 100 µM.

In the case of `COC(=O)CSc1[nH]c2nc(C)nc(Nc3ccccc3)c2c1C#N`, the TGI in the test on CCRF-CEM leukemia, in the test with SW-620 colon, in the test with SN12C renal, in the test on TK-10 renal, in the test with HOP-62 NSCLC and in the test on MALME-3M melanoma was over 10 µM in each case. Besides, the TGI with RPMI-8226 leukemia, in the test on 786-0 renal and with HT29 colon was over 10 µM throughout.

Turning to `CC(=O)OCC1OC(n2c(-c3ccccc3)c(N=Nc3ccc(Cl)cc3)c(C)c(C#N)c2=S)C(OC(C)=O)C(OC(C)=O)C1OC(C)=O` (configuration not stated), the GI50 in the test on CCRF-CEM leukemia was 4.1 µM and 13.7 µM; with SN12C renal, 12.2 µM and > 100 µM; in the test on HCT-116 colon, 6.61 µM and 30.2 µM; in the test with OVCAR-3 ovarian, 4.77 µM and 39.8 µM; in the test on MALME-3M melanoma it was 20.1 µM and > 100 µM; in the test on RPMI-8226 leukemia, 6.64 µM and 37.9 µM. Besides, in the test with HT29 colon, the GI50 is 20.1 µM and 87.7 µM. Further, the TGI with CCRF-CEM leukemia is 54.3 µM and > 100 µM; in the test with SW-620 colon, 34.6 µM and > 100 µM; in the test on SN12C renal it was over 100 µM; with TK-10 renal, over 100 µM; in the test with HCT-116 colon it was over 100 µM; in the test with HOP-62 NSCLC, 52.9 µM and > 100 µM. Moreover, the TGI is 52.5 µM and > 100 µM with OVCAR-3 ovarian; over 100 µM with MALME-3M melanoma; over 100 µM in the test with RPMI-8226 leukemia; > 100 µM and 88.6 µM in the test with 786-0 renal; 49.1 µM and > 100 µM in the test with HT29 colon.

The values above are taken from PubChem BioAssay (NCI).
